Here are results for one molecule from ChEMBL document CHEMBL5046253, “Synthesis and bioevaluation of diaryl urea derivatives as potential antitumor agents for the treatment of human colorectal cancer” (Eur J Med Chem, 2022).

One series relates to Kidney. Kind of series: Toxicity in BALB/c mouse assessed as effect on kidney by H and E staining based histological analysis. The format is tissue-based. To be noted: in vivo.
A further series relates to Heart. Kind of series: Toxicity in BALB/c mouse assessed as effect on heart by H and E staining based histological analysis. The format is tissue-based. The note with it: in vivo.
Series [1] relates to HCT-116. As to the kind of experiment: Inhibition of AKT phosphorylation at S473 residue in human HCT-116 cells at 10 uM after 24 hrs by Western blot analysis. The format is cell-based. A general note: In western blotting, separated proteins are transferred to a membrane and probed.
Series [2] is described as follows: MRT in Sprague-Dawley rat at 20 mg/kg, iv by LC-MS/MS analysis. The note with it: in vivo. The format is ADME, organism-based.
For the next series, the system named is Liver. Kind of series: Toxicity in BALB/c mouse assessed as effect on liver by H and E staining based histological analysis. In kind it is tissue-based. To be noted: in vivo.
Series [3] can be described thus: Tmax in Sprague-Dawley rat at 20 mg/kg, iv by LC-MS/MS analysis. The format is ADME, organism-based. The note with it: in vivo.
The nature of series [4]: Half life in Sprague-Dawley rat at 20 mg/kg, iv by LC-MS/MS analysis. In kind it is ADME, organism-based. To be noted: in vivo.
The target of the next series is Cytochrome P450 1A2 (Homo sapiens, UniProt P05177). As to the kind of experiment: Inhibition of CYP1A2 (unknown origin). In kind it is ADME.
The target in a further series is Cytochrome P450 2C9 (Homo sapiens, UniProt P11712). As to the kind of experiment: Inhibition of CYP2C9 (unknown origin). The format is ADME.
Series [5] in a line: AUC (0 to infinity) in Sprague-Dawley rat at 20 mg/kg, iv by LC-MS/MS analysis. In kind it is ADME, organism-based. Further details: route intravenous, time infinity, dose 20 mg/kg. The note with it: in vivo.
A short description of series [6]: Volume of distribution at steady state in Sprague-Dawley rat at 20 mg/kg, iv by LC-MS/MS analysis. The format is ADME, organism-based. The note with it: in vivo.
The subject of series [7] is HCT-116. As to the kind of experiment: Antitumor activity against human HCT-116 cells xenografted in BALB/c nude mouse assessed as tumor size at 20 mg/kg, iv administered for 19 days (reference value: 1264.1+/-95.7 mm3). The format is functional. To be noted: time 19 day. (In general: In xenograft studies the graft and the host belong to different species.)
A further series relates to Mus musculus. As to the kind of experiment: Hyperglycemic activity in ICR mouse model assessed as effect on blood glucose level at 20 mg/kg, iv by glucometer. The format is toxicity, organism-based. The note with it: in vivo.
Series [8] deals with HCT-116. As to the kind of experiment: Antitumor activity against human HCT-116 cells xenografted in BALB/c nude mouse assessed as tumor growth inhibition at 20 mg/kg, iv administered for 19 days. The format is functional. The note with it: HCT-116, iv, 456 h, time 19 day, read-out: TGI.
A further series has as its system Lung. As to the kind of experiment: Toxicity in BALB/c mouse assessed as effect on lungs by H and E staining based histological analysis. In kind it is tissue-based. The note with it: in vivo.
The next series concerns the target Cytochrome P450 2D6 (Homo sapiens, UniProt P10635). As to the kind of experiment: Inhibition of CYP2D6 (unknown origin). The format is ADME.
Series [9] can be described thus: AUC (0 to 72 hrs) in Sprague-Dawley rat at 20 mg/kg, iv by LC-MS/MS analysis. The format is ADME, organism-based. Set-up: time < 72 hr, route intravenous, dose 20 mg/kg. The note with it: in vivo.
The subject of another series is Spleen. As to the kind of experiment: Toxicity in BALB/c mouse assessed as effect on spleen by H and E staining based histological analysis. The format is tissue-based. To be noted: in vivo.
The nature of series [10]: Metabolic stability in Sprague-Dawley rat liver microsome. In kind it is ADME. The note with it: microsomes. (Microsomes from liver hold many membrane-bound enzymes, among them those of drug oxidation.)
A further series deals with Cytochrome P450 2C19 (Homo sapiens, UniProt P33261). As to the kind of experiment: Inhibition of CYP2C19 (unknown origin). The format is ADME.

Activity calls are given as the source filed them. The calls are words filed in the database; no cut-off is given here. Where only a bound is given, the exact number is not on record here.

Sequence of Cytochrome P450 2C19 (P33261 whole entry): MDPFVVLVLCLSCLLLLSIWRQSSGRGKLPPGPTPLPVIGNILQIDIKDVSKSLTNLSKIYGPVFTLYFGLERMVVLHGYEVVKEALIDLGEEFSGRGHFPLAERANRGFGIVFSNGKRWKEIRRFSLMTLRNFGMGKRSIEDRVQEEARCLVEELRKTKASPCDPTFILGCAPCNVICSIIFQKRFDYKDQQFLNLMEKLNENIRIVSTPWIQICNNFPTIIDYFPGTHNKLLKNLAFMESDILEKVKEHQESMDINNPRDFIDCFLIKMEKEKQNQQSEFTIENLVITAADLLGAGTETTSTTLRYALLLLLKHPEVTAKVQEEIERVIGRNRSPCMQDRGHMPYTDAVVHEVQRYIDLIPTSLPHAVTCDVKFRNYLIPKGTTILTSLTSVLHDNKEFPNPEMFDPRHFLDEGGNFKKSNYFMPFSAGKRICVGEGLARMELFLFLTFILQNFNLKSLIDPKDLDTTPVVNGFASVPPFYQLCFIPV
Sequence of Cytochrome P450 2C9 (P11712 whole entry): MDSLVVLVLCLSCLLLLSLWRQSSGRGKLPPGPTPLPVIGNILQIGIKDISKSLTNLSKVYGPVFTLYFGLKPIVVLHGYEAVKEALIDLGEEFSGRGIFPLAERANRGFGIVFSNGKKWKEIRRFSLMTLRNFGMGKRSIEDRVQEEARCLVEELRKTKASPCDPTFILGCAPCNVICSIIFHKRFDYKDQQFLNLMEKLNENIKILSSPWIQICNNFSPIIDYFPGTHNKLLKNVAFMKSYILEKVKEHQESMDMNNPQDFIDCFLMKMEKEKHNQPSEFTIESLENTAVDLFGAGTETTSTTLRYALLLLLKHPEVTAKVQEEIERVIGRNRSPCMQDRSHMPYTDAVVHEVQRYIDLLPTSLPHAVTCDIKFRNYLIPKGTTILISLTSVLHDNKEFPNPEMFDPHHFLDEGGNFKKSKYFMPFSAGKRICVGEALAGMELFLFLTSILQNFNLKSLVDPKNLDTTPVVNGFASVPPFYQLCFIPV
Sequence of Cytochrome P450 1A2 (P05177 whole entry): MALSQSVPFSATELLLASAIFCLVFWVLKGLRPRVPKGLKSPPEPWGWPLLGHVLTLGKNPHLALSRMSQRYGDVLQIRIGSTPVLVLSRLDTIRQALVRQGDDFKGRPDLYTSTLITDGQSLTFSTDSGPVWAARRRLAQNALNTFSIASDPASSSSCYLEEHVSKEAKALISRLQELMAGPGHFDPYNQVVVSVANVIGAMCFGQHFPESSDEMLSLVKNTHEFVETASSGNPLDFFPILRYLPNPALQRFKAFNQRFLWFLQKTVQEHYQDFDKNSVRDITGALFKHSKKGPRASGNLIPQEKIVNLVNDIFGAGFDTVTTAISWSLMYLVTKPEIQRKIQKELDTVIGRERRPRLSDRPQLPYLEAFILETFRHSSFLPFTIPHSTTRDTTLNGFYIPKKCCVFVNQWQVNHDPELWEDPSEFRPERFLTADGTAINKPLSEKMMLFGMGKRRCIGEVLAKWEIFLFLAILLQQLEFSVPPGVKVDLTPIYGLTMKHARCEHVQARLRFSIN
Sequence of Cytochrome P450 2D6 (P10635 whole entry): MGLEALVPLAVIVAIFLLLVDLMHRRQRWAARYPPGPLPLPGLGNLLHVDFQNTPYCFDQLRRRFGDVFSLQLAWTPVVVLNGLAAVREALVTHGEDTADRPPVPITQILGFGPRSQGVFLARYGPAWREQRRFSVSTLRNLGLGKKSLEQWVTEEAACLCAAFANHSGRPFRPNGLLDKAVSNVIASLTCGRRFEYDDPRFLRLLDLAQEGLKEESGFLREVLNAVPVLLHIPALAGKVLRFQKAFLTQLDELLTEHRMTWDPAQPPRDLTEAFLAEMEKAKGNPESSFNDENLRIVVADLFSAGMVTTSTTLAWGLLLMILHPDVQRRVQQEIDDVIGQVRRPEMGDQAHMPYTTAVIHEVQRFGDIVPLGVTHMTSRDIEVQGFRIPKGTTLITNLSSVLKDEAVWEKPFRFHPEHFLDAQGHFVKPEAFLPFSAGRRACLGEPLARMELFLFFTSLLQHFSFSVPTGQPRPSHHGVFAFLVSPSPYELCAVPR

For the molecule `CN(C)C1CCN(C(=O)c2ccc(NC(=O)Nc3ccc(-c4nc(N5CCOCC5)nc(N5CCOCC5)n4)cc3)cc2)CC1` [GEDATOLISIB], the Activity entry in the series with Kidney is given as “Non-Toxic”; in the series with Heart, “Non-Toxic”; in the series with Liver, “Non-Toxic”; in the series with HCT-116 [7], 800.3 mm3; with Mus musculus, “Toxic”; in the series on Lung, “Non-Toxic”. Further, the Activity entry in the series with Spleen is “Non-Toxic”. The inhibition entry in the series on HCT-116 [1] is “Active”. The molecule also came in with an MRT in series [2] of 9.1 h. Besides, the Tmax in series [3] was determined as 1.8 min. In series [4], the half-life was 15 h. Besides, the IC50 against Cytochrome P450 1A2, on Cytochrome P450 2C9, on Cytochrome P450 2D6 and against Cytochrome P450 2C19 was over 50 µM in each case. For the same molecule, the area under the curve AUC(0-inf) in series [5] came out at 42.2 µg·h/mL. Moreover, the Vdss in series [6] was found to be 10.3 L/kg. Moreover, the inhibition in vivo at 20 mg/kg in the series with HCT-116 [8] was determined as 41.2%. Further, in [9], the exposure AUC(0-t) at 72 h worked out at 41.8 µg·h/mL. Further, the Stability result in series [10] is listed as “Stable”.

For orientation: MRT means the average time that molecules of a dose stay in the body. As a reminder, the Tmax is the time from dosing to the highest level. For orientation: half-life means how long it takes for the measured level to halve. A word on the IC50: it is the point on the concentration scale where inhibition reaches its midpoint. The term AUC(0-inf) denotes total exposure, with the tail of the curve extrapolated. Usually Vdss stands for a proportionality between amount in the body and measured concentration, not a real space. Low values mean confinement near the circulation, high ones extensive tissue distribution. As a reminder, the AUC(0-t) is exposure summed from dosing to a finite time, without extrapolation to infinity. Lower therefore signals low exposure.
